Experimental findings from patent US11306089B2, “Gamma-carboline compounds for the detection of Tau aggregates” (AC IMMUNE SA, priority 2018, dated 2022) are described below.

Each structure is given as a SMILES string. Marks after values point to notes of the source that are not given here. Where only a bound is given, the exact number is not on record here.

In assay [1] the target is Tau in human Alzheimer disease brain homogenate (Homo sapiens, UniProt P10636). The assay can be described thus: Competition binding to Tau in AD brain homogenate (18F-labeled Tau binder). The note with it: non-radioactive fluorine-19 derivatives; for IC50: human AD brain homogenate. More on the design: key to High affinity to Tau (IC50 in AD brain homogenate), grade: − poor; ∘ moderate; + good; ++ very good; +++ excellent. The protocol: Determination of Binding in AD and Healthy Control Brain Homogenates
Sequence of Tau in human Alzheimer disease brain homogenate (P10636 623-708 limits assumed): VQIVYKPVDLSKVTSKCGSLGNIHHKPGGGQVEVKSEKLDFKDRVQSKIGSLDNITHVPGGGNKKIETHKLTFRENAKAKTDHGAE
20 μg of human Alzheimer disease brain homogenate was incubated with a dilution series of each test compound (1000 to 0.06 nM) in the presence of 800 Bq of ^18F-labeled Tau binder. The samples were shaken at 110 rpm for 45 min at 37° C. Samples were then filtered through GF/B 96 well filter plates and washed twice with 300 μL assay buffer (PBS containing 0.1% BSA and 2% DMSO). Thereafter, filter plates were sealed and a Fuji Film Imaging Plate (BAS-SR2025) was placed on top. The imaging plate was analyzed after overnight exposition using a Fuji Film BAS-5000. Non-specific signal was determined with samples containing ^18F-labeled Tau-reference binder in the presence of assay buffer without brain substrate and competitor. Specific binding was calculated by subtracting the non-specific signal from the measured samples signal. The unblocked ^18F-labeled Tau-binder signal was defined as total binding. IC50 values were calculated by Prism V7 (GraphPad) setting total binding to 100%.

In assay [2] the target is amyloid-beta in human Alzheimer disease brain homogenate (Homo sapiens, UniProt P05067). Description: Binding affinity to amyloid-beta in AD brain homogenate (3H-PIB competition). On the set-up: key to Low affinity to amyloid-beta (IC50 in AD brain homogenate), grade: − poor; ∘ moderate; + good; ++ very good; +++ excellent. Particulars: non-radioactive fluorine-19 derivatives; for IC50: human AD brain homogenate. The protocol:
Determination of the Binding Affinity to Amyloid-Beta in AD Brain Homogenate 20 μg of human Alzheimer disease brain homogenate was incubated with a dilution series of each test compound (1000 to 0.06 nM) in the presence of 700 Bq of ^3H-labeled beta-amyloid binder PIB. The samples were shaken at 110 rpm for 60 min at 37° C. Samples were then filtered through GF/B 96 well filter plates and washed twice with 200 μL assay buffer (PBS containing 0.1% BSA and 2% DMSO). Thereafter, 40 μL Szintillation cocktail was added and the filter plates were sealed. The counts were then counted using a TopCount (Perkin Elmer). Non-specific signal was determined with samples containing ^3H-labeled beta-amyloid binder in the presence of assay buffer without brain substrate and competitor. Specific binding was calculated by subtracting the non-specific signal from the measured samples signal. The unblocked ^3H-labeled beta-amyloid binder signal was defined as total binding. IC50 values were calculated by Prism V7 (GraphPad) setting total binding to 100%.

The next assay deals with T1, MAO-A (Homo sapiens, UniProt P21397).
T1 construct: human brain homogenate (without AD pathology, HC); from tissue; host or cells: human brain homogenate without AD pathology (HC)
T1 sequence (P21397 1-527): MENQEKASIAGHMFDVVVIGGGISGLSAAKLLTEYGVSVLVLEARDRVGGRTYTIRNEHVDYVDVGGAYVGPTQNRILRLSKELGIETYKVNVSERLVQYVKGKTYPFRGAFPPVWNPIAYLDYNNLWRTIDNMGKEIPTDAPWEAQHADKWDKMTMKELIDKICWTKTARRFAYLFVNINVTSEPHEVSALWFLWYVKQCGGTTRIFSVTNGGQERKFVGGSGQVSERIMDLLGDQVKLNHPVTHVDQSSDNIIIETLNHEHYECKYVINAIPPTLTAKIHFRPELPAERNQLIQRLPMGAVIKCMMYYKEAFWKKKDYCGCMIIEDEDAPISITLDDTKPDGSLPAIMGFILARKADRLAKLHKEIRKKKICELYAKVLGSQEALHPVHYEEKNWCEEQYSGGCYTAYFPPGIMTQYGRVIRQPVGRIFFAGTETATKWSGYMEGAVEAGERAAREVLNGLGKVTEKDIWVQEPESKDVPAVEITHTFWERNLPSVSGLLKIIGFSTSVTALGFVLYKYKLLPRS
Description: Binding affinity to MAO-A in human HC brain homogenate (3H-Harmine competition). More on the design: key to Low affinity to MAO A (IC50 in human HC brain homogenate), grade: − poor; ∘ moderate; + good; ++ very good; +++ excellent. The note with it: for IC50: human control brain homogenate, 3H-Harmine competition. The protocol:
Determination of the Binding Affinity to MAO-A in HC Brain Homogenate
20 μg of mouse whole brain or human brain homogenate (without AD pathology, HC) was incubated with a dilution series of each test compound (1000 to 0.06 nM) in the presence of 700 Bq of ^3H-labeled MAO-A binder Harmine. The samples were shaken at 110 rpm for 60 min at 37° C. Samples were then filtered through GF/B 96 well filter plates and washed twice with 200 μL assay buffer (PBS containing 0.1% BSA and 2% DMSO). Thereafter, 40 μL Szintillation cocktail was added and the filter plates were sealed. The counts were then counted using a TopCount (Perkin Elmer). Non-specific signal was determined with samples containing ^3H-Harmine in the presence of assay buffer without brain substrate and competitor. Specific binding was calculated by subtracting the non-specific signal from the measured samples signal. The unblocked ^3H-Harmine signal was defined as total binding. IC50 values were calculated by Prism V7 (GraphPad) setting total binding to 100%.

Sequence of amyloid-beta in human Alzheimer disease brain homogenate (P05067 672-711 limits assumed): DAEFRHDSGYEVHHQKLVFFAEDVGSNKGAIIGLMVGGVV

As to `Fc1ccc(-c2ccc3c(c2)[nH]c2ccncc23)cn1` [F-1, reference compound], the IC50 in assay [1] is less than 2 nM; in assay [2] it was more than 1000 nM; at MAO-A, 5.9 nM.
As to `Fc1cc(-c2ccc3c(c2)[nH]c2ccncc23)ccn1` [F-2], the IC50 is less than 2 nM in assay [1], more than 1000 nM in assay [2] and 37.2 nM at MAO-A.
Take `[18F]c1ccc(-c2ccc3c(c2)[nH]c2ccncc23)cn1` [^18F-1, reference compound]: the IC50 is less than 2 nM in assay [1], more than 1000 nM in assay [2] and 5.9 nM at MAO-A.
As for `[18F]c1cc(-c2ccc3c(c2)[nH]c2ccncc23)ccn1` [^18F-2], the “High affinity to Tau (IC50 in AD brain homogenate), grade” value in assay [1] (AD brain homogenate) is “+++”. Moreover, the IC50 in assay [1] was less than 2 nM; in assay [2] it was more than 1000 nM; at MAO-A, 37.2 nM. In addition, the “Low affinity to amyloid-beta (IC50 in AD brain homogenate), grade” value in assay [2] (AD brain homogenate) is recorded as “+++^a)”. Further, at MAO-A (human HC brain homogenate), the “Low affinity to MAO A (IC50 in human HC brain homogenate), grade” value is on record as “∘”. Also, the “fold higher IC50 than compound 18F-1, MAO A in human control brain homogenate” value at MAO-A (ratio to 18F-1) worked out at 6.3 fold.

Broadly, the IC50 is the point on the concentration scale where inhibition reaches its midpoint.
